From patent publication US6596733B2, “Use of nitric oxide scavengers to treat side effects caused by therapeutic administration of sources of nitric oxide” (Medinox, Inc., priority 1998, dated 2003)

Tests used:
[1] = tested on: rats having physiological levels of nitric oxide; settings: rat, in vivo
Experimental: (§1) A pressure sensor chip for a telemetric device (Data Scientific International, Saint Paul, Minn.) was implanted in the dorsal abdominal aorta of male Wistar rat (250-280 g). The rats were allowed to recover from the surgery over a period of 24 hours. The implanted rats were separated into two groups (n=3); One received 10 mg/ml of L-proline dithiocarbamate (L-PD) in drinking water and the other received only distilled water for 14 days. […] On average, in the experimental group, each rat received about 800 mg/kg/day for 14 days.

[2] = 10 mg/ml in drinking water for 14 days
Experimental: as §1

## NC(=S)S.O=C(O)[C@@H]1CCCN1 [L-PD, L-proline dithiocarbamate]
[1]
  effect on blood pressure: no effect
  effect on heart rate: no effect
[2]
  amounts of water consumption, experimental vs control group: no significant difference
  weight gain, experimental vs control group: no significant difference
